Data taken from patent publication US9156845B2, “4-(substituted amino)-7H-pyrrolo[2,3-d] pyrimidines as LRRK2 inhibitors” (Pfizer Inc., priority 2012, dated 2015).

Assays:
Assay in all cases: ActivX kinase probe assay (human PBMC)
Format in all cases: binding
[1] = target: GSK3B (Homo sapiens (Human), UniProt P49841); details: GSK3B, read-out: percent inhibition
[2] = target: OSR1 (Homo sapiens (Human), UniProt O95747); details: OSR1, read-out: percent inhibition
[3] = target: NEK9 (Homo sapiens (Human), UniProt Q8TD19); details: NEK9, read-out: percent inhibition
Sequence of NEK9 (Q8TD19 whole entry): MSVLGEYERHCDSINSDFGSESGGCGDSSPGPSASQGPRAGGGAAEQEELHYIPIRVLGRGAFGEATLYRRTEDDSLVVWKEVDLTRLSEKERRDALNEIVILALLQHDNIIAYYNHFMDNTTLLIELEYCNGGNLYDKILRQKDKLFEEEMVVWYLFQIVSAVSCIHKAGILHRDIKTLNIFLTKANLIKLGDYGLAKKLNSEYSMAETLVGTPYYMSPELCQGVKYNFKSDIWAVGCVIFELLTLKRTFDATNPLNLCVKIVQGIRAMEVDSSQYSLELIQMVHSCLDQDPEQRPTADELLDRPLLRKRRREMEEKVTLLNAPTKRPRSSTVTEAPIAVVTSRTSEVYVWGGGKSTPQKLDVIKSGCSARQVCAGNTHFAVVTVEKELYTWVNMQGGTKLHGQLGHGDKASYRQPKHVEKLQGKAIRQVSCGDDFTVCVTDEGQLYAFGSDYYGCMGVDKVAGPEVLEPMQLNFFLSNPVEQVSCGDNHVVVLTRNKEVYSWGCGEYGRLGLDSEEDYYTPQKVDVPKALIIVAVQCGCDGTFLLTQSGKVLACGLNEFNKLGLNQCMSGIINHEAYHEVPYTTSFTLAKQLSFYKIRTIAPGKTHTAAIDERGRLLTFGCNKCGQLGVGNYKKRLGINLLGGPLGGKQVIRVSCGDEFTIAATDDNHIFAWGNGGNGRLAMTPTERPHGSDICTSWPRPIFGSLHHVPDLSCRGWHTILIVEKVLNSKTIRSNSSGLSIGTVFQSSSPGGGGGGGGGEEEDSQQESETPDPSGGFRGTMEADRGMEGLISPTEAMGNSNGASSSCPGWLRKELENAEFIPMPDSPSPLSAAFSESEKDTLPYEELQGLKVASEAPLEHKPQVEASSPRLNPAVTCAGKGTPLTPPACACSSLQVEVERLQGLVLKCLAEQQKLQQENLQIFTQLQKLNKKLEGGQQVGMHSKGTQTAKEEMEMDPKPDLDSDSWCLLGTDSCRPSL

[4] = tested on: NEK6, NEK7
[5] = tested on: PITSLRE
[6] = target: FER (Homo sapiens (Human), UniProt P16591); details: FER, read-out: percent inhibition
Sequence of FER (P16591 whole entry, the tested form may be a part): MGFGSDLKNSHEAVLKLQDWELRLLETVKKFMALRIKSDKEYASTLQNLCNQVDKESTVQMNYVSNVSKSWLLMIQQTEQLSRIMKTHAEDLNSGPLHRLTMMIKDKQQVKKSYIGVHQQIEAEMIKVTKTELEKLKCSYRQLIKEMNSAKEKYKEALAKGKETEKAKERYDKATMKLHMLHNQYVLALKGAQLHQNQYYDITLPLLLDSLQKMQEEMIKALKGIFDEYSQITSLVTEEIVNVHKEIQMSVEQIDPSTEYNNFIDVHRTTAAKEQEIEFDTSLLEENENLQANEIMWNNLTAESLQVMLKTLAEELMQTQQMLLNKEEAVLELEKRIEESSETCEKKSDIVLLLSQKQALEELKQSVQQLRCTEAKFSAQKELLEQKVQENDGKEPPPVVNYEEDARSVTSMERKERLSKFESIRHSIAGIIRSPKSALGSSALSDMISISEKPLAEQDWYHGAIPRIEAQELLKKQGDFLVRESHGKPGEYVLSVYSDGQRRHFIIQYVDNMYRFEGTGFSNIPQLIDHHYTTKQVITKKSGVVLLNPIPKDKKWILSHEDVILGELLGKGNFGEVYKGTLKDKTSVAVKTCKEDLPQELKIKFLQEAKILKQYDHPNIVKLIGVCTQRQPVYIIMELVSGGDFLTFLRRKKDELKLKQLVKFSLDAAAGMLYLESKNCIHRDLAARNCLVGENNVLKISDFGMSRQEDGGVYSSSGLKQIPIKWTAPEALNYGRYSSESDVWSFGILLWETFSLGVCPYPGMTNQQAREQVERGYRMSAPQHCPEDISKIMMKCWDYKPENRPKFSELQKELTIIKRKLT

[7] = target: MSK1 domain1 (Homo sapiens (Human), UniProt O75582); details: MSK1 domain1, read-out: percent inhibition
Sequence of MSK1 domain1 (O75582 whole entry, the tested form may be a part): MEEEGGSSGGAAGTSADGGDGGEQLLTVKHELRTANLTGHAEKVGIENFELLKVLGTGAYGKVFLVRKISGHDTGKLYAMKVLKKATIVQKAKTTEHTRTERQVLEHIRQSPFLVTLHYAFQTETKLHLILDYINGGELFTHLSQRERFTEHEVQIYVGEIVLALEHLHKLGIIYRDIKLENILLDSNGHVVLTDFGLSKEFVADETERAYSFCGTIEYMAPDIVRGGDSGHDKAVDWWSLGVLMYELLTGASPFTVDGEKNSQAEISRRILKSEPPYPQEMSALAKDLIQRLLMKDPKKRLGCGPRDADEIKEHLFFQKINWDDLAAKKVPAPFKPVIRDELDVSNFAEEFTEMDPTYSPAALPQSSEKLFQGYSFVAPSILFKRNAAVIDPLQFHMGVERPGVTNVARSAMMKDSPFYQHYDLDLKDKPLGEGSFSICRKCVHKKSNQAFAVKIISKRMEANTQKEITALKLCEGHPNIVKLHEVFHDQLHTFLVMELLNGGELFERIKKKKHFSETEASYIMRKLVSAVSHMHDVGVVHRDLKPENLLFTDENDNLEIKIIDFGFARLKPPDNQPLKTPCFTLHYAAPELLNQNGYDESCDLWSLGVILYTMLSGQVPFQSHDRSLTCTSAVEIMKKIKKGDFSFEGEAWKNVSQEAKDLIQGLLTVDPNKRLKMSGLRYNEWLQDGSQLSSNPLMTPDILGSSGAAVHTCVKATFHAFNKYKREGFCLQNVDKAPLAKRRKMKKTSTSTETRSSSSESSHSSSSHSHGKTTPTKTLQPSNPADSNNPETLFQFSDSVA

[8] = target: NDR2 (Homo sapiens (Human), UniProt Q9Y2H1); details: NDR2, read-out: percent inhibition
[9] = target: MST2 (Homo sapiens (Human), UniProt Q13188); details: read-out: percent inhibition
Sequence of MST2 (Q13188 whole entry): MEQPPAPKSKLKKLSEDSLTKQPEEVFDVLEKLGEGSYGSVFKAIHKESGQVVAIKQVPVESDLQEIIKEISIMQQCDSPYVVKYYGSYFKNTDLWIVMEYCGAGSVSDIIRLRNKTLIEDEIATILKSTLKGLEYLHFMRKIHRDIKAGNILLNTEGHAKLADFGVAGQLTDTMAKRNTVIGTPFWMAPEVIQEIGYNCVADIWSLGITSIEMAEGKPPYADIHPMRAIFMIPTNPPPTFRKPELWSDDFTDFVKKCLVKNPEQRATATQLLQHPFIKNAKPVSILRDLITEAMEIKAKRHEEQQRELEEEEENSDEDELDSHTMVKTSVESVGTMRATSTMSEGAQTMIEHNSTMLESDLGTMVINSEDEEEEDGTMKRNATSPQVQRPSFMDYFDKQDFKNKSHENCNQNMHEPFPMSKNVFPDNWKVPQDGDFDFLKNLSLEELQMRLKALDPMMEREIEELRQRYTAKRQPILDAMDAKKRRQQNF

[10] = target: GSK3A (Homo sapiens (Human), UniProt P49840); details: GSK3A, read-out: percent inhibition
[11] = target: MST1 (Homo sapiens (Human), UniProt Q13043); details: read-out: percent inhibition
[12] = target: HPK1 (Homo sapiens (Human), UniProt Q92918); details: HPK1, read-out: percent inhibition
[13] = target: CaMK1d (Homo sapiens (Human), UniProt Q8IU85); details: CaMK1d, read-out: percent inhibition
[14] = target: JAK1 domain2 (Homo sapiens (Human), UniProt P23458); details: JAK1 domain2, read-out: percent inhibition
Sequence of JAK1 domain2 (P23458 whole entry, the tested form may be a part): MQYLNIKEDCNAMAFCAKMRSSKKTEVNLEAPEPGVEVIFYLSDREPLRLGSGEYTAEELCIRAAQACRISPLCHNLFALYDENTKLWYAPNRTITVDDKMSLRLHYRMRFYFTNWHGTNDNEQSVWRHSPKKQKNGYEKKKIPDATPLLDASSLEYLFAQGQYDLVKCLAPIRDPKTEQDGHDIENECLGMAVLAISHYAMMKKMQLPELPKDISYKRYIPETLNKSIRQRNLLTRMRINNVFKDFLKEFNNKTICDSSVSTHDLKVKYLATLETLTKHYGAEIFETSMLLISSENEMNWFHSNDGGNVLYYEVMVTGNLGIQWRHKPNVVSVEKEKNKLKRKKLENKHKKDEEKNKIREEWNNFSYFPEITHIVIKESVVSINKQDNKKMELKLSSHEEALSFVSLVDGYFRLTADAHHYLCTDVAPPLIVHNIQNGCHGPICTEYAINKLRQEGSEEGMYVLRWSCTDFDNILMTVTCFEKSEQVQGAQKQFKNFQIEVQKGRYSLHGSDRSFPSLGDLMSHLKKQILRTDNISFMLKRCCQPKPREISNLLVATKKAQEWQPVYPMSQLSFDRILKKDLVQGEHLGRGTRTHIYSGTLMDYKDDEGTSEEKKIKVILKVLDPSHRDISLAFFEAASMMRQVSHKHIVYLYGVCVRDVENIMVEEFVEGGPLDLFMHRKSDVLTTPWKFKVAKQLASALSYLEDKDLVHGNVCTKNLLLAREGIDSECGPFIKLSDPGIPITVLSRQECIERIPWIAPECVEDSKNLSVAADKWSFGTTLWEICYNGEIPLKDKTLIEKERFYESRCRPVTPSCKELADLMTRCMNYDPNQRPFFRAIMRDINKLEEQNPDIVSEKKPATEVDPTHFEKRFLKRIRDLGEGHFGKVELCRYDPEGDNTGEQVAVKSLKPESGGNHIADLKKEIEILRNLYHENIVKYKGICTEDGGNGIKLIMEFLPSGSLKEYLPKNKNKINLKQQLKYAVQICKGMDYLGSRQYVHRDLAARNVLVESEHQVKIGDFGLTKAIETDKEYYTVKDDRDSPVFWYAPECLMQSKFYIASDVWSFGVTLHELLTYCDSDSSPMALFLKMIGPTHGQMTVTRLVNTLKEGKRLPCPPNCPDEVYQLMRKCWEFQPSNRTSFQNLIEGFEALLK

[15] = target: MAP2K4 (Homo sapiens (Human), UniProt P45985); details: MAP2K4, read-out: percent inhibition
Sequence of MAP2K4 (P45985 whole entry): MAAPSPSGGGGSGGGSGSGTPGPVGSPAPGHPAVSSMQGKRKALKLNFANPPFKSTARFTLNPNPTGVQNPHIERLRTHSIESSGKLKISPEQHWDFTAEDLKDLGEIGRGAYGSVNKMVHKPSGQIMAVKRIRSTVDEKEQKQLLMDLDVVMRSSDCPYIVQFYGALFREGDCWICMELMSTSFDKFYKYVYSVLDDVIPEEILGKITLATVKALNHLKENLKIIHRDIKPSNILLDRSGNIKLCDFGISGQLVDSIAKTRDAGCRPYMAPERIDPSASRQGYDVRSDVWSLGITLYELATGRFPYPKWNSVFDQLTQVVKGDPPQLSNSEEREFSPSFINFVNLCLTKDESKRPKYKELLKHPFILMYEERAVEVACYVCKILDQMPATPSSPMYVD

[16] = target: MAST3 (Homo sapiens (Human), UniProt O60307); details: MAST3, read-out: percent inhibition
[17] = target: MAP3K3 (Homo sapiens (Human), UniProt Q99759); details: MAP3K3, read-out: percent inhibition
[18] = tested on: AKT2, AKT3
[19] = tested on: AMPKa1, AMPKa2
[20] = target: LRRK2 (Homo sapiens (Human), UniProt Q5S007); details: read-out: percent inhibition
[21] = tested on: MST1, MST2
[22] = target: AMPKa1 (Homo sapiens (Human), UniProt Q13131); details: AMPKa1, read-out: percent inhibition
[23] = tested on: MST4, YSK1
[24] = target: NDR1 (Homo sapiens (Human), UniProt Q15208); details: NDR1, read-out: percent inhibition
[25] = target: RSK1 domain1 (Homo sapiens (Human), UniProt Q15418); details: RSK1 domain1, read-out: percent inhibition
[26] = target: RSK1 domain2 (Homo sapiens (Human), UniProt Q15418); details: RSK1 domain2, read-out: percent inhibition
[27] = target: GPRK6 (Homo sapiens (Human), UniProt P43250); details: GPRK6, read-out: percent inhibition
[28] = target: MLK3 (Homo sapiens (Human), UniProt Q16584); details: MLK3, read-out: percent inhibition
[29] = target: RIPK3 (Homo sapiens (Human), UniProt Q9Y572); details: RIPK3, read-out: percent inhibition
[30] = target: p70S6K (Homo sapiens (Human), UniProt P23443); details: p70S6K, read-out: percent inhibition
[31] = target: MAP2K1 (Homo sapiens (Human), UniProt Q02750); details: MAP2K1, read-out: percent inhibition
Sequence of MAP2K1 (Q02750 whole entry): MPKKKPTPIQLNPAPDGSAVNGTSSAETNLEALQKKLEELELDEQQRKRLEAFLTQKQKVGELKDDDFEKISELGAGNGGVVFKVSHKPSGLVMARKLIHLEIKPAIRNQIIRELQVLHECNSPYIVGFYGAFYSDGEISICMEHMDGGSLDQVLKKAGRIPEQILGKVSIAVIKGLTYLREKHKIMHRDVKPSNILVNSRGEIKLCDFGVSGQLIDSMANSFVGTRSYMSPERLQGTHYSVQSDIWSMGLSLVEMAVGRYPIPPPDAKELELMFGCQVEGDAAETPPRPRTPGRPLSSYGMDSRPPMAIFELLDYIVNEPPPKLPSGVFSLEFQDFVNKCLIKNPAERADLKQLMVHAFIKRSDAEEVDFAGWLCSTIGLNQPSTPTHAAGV

For `Cn1cc(-c2c[nH]c3ncnc(N4CCOCC4)c23)cn1` [Example 1, 5-(1-Methyl-1H-pyrazol-4-yl)-4-(morpholin-4-yl)-7H-pyrrolo[2,3-d]pyrimidine], the inhibition at 0.1 µM ([1]; 0.1 μM) was 2.4%, the inhibition at 1 µM ([1]; 1 μM) was -5.2% and the inhibition at 0.1 µM ([2]; 0.1 μM) was -7.8%. It also gave an inhibition at 1 µM ([2]; 1 μM) of -4%, an inhibition at 0.1 µM ([3]; 0.1 μM) of -0.9% and an inhibition at 1 µM ([3]; 1 μM) of 12.6%. For the same compound, the percent inhibition ([4]; 0.1 μM) was −1.7%, the percent inhibition ([4]; 1 μM) was −17% and the percent inhibition ([5]; 0.1 μM) was −13%. It also gave a percent inhibition ([5]; 1 μM) of −3.2%, an inhibition at 0.1 µM ([6]; 0.1 μM) of -7.3% and an inhibition at 1 µM ([6]; 1 μM) of -17.9%. For the same compound, the inhibition at 0.1 µM ([7]; 0.1 μM) was -7%, the inhibition at 1 µM ([7]; 1 μM) was -30.4% and the inhibition at 0.1 µM ([8]; 0.1 μM) was 22.8%. It also gave an inhibition at 1 µM ([8]; 1 μM) of 31.2%, an inhibition at 0.1 µM ([9]; 0.1 μM) of 10.1% and an inhibition at 1 µM ([9]; 1 μM) of 49.4%. The inhibition at 0.1 µM ([10]; 0.1 μM) was -0.2%, the inhibition at 1 µM ([10]; 1 μM) was -11.4% and the inhibition at 0.1 µM ([11]; 0.1 μM) was 13.2%. For the same compound, the inhibition at 1 µM ([11]; 1 μM) was 50.8%, the inhibition at 0.1 µM ([12]; 0.1 μM) was -9.7% and the inhibition at 1 µM ([12]; 1 μM) was -14.9%. For the same compound, the inhibition at 0.1 µM ([13]; 0.1 μM) was 8.4%, the inhibition at 1 µM ([13]; 1 μM) was 3.2% and the inhibition at 0.1 µM ([14]; 0.1 μM) was -8.1%. It also gave an inhibition at 1 µM ([14]; 1 μM) of -13.7%, an inhibition at 0.1 µM ([15]; 0.1 μM) of 10.1% and an inhibition at 1 µM ([15]; 1 μM) of 9.6%. It also gave an inhibition at 0.1 µM ([16]; 0.1 μM) of 9%, an inhibition at 1 µM ([16]; 1 μM) of -6.7% and an inhibition at 0.1 µM ([17]; 0.1 μM) of -9.2%. It also gave an inhibition at 1 µM ([17]; 1 μM) of 7.2%, a percent inhibition ([18]; 0.1 μM) of 1.6% and a percent inhibition ([18]; 1 μM) of 10.7%. For the same compound, the percent inhibition ([19]; 0.1 μM) was 10.8%, the percent inhibition ([19]; 1 μM) was 49.7% and the inhibition at 0.1 µM ([20]; 0.1 μM) was 69%. For the same compound, the inhibition at 1 µM ([20]; 1 μM) was 88.1%, the percent inhibition ([21]; 0.1 μM) was −14.5% and the percent inhibition ([21]; 1 μM) was 24.8%. The inhibition at 0.1 µM ([22]; 0.1 μM) was 1.5%, the inhibition at 1 µM ([22]; 1 μM) was 27% and the percent inhibition ([23]; 0.1 μM) was −11.4%. For the same compound, the percent inhibition ([23]; 1 μM) was 15.1%, the inhibition at 0.1 µM ([24]; 0.1 μM) was -19.6% and the inhibition at 1 µM ([24]; 1 μM) was -7.8%. For the same compound, the inhibition at 0.1 µM ([25]; 0.1 μM) was 16.3%, the inhibition at 1 µM ([25]; 1 μM) was 59.8% and the inhibition at 0.1 µM ([26]; 0.1 μM) was -12.7%. It also gave an inhibition at 1 µM ([26]; 1 μM) of 18.1%, an inhibition at 0.1 µM ([27]; 0.1 μM) of 8.9% and an inhibition at 1 µM ([27]; 1 μM) of 23.7%. The inhibition at 0.1 µM ([28]; 0.1 μM) was 1.4%, the inhibition at 1 µM ([28]; 1 μM) was 4.5% and the inhibition at 0.1 µM ([29]; 0.1 μM) was 5.6%. For the same compound, the inhibition at 1 µM ([29]; 1 μM) was -4.2%, the inhibition at 0.1 µM ([30]; 0.1 μM) was 23% and the inhibition at 1 µM ([30]; 1 μM) was 18.9%. For the same compound, the inhibition at 0.1 µM ([31]; 0.1 μM) was 3.5% and the inhibition at 1 µM ([31]; 1 μM) was 17%.
